Test results taken from patent US12247004B2, “2-amino-N-(amino-oxo-aryl-lambda6-sulfanylidene)acetamide compounds and their therapeutic use” (Oxford Drug Design Limited, priority 2019, dated 2025).
In brackets after ≈: the same amount, converted by molar mass. Structures can show the parent of a compound that is named as a salt. Where two headings read alike, the source gives them in different places.

Columns and labels:
[1] = Human cell viability / cytotoxicity (CellTiter-Glo, 24 hours); format: cell-based; settings: human, HepG2 cells (ATCC HB-8065); HepG2 ATCC HB-8065, 24 hours; read-out: Cytotoxicity in HepG2 ATCC HB-8065 Cell Line, IC50
Procedure: Study 3—Human Cell Viability
Compounds were assessed for potential non-specific cytotoxic effects against a human hepatic cell line (HepG2 ATCC HB-8065). 96-well plates were seeded with HepG2 cells in concentration of 15,000 cells per well in 100 μL of MEM growth media completed with 1% NEAA and 1% sodium pyruvate. Border wells were filled with 100 μL of sterile PBS. Two days upon cells incubation, the compounds were added. Compound dilutions were prepared in 96-well V-bottom plate in pure DMSO. Growth media from 5 plates were aspirated and replaced with 98.7 μL of fresh growth media. 1.28 μL of compounds prepared in V-bottom plates were transferred with multichannel pipette into test plates (78.1× dilution). Final DMSO concentration was 1.28% per well. In control wells, 1.28 μL of DMSO was added in 98.7 μL of media. Compounds were tested in duplicates. Cells were incubated with compounds for 24 hours when cell viability was assessed by measuring ATP levels. ATP levels were measured by adding 50 μL of CellTiter-Glo reagent to each well and after 5 minutes of incubation luminescence was measured with SpectraMax i3. The potential effect of tested compounds on cell viability was determined by comparing the signal obtained in presence of different concentrations of the compounds with those obtained in the presence of DMSO only. The potential effects were then calculated and presented as IC50 values (μg/mL).

[2] = biological target: Leucyl-tRNA synthetase (LeuRS) (Escherichia coli (strain K12), UniProt P07813); test: Leucyl-tRNA synthetase enzyme inhibition (AMP-Glo; single point % inhibition at 100 μM and IC50); format: biochemical
Leucyl-tRNA synthetase (LeuRS), sequence (P07813 whole entry, looked up): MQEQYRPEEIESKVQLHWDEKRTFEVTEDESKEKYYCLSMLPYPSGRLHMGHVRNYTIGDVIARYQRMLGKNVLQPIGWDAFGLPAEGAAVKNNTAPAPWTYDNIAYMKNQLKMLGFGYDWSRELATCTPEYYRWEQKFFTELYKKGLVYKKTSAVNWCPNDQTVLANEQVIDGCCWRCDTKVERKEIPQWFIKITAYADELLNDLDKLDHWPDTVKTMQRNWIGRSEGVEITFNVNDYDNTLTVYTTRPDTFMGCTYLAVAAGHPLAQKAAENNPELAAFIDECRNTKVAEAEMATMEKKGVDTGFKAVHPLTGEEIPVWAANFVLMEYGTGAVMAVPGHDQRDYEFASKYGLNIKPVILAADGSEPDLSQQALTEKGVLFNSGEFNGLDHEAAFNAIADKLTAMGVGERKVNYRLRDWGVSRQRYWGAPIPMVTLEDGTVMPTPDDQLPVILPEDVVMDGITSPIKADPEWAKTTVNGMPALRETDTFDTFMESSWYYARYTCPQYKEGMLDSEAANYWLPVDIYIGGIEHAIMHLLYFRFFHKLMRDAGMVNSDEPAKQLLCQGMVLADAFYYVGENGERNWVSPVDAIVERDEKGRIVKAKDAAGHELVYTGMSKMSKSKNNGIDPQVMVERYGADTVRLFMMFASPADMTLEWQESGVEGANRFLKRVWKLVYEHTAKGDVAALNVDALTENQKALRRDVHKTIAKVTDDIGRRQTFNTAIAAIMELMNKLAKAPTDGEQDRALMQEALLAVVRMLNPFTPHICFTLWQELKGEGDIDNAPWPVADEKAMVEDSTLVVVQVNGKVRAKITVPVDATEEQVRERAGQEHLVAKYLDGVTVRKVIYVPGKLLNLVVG
Text: Study 1—Enzyme Inhibition
The aminoacylation reaction catalyzed by aminoacyl-tRNA synthetases (aaRS) takes place in two steps. In the first step, aaRS activates its cognate amino acid with ATP; and in the second step the activated amino acid is loaded to its corresponding tRNA. This reaction can be summarized as follows: aaRS+aa+ATP=aaRS-aa-AMP+PPi aaRS-aa-AMP+tRNA=aa-tRNA+AMP+aaRS
wherein: aaRS, aminoacyl-tRNA synthetase; aa, amino acid; aaRS-aa-AMP, enzyme-bound to aminoacyl-adenylate; AMP, adenosine monophosphate; aa-tRNA, aminoacyl-tRNA, PPi, inorganic pyrophosphate.
a. Single Point Percentage Inhibition
The activity of the pathogenic aaRSs was monitored by measuring AMP production using the commercial kit AMP-Glo (Promega, Madison, USA).
Ligand stock solutions were prepared in 100% DMSO at 10 mM concentration. An assay buffer consisting of 100 mM Tris HCl pH 7.6, 40 mM MgCl, 20 mM KCl and 150 mM NaCl was prepared in dH2O.
Using the same enzymatic assay in a 384-well plate format, ten point concentration response curves were generated for each compound using a top concentration of 10 μM. The known inhibitor LeuAMS was used as a positive control for the LeuRS assay. 100% DMSO was used as a negative control. The IC50 was calculated based on non-linear regression analysis.

[3] = system: bacteria (ATCC reference strains); test: Antibacterial activity, MIC by broth micro-dilution (CLSI)
[4] = E. coli LeuRS, read-out: Enzyme Inhibition - IC50, E. coli LeuRS
[5] = Acinetobacter baumannii, read-out: Antibacterial Activity (MIC), E = A. baumannii B1931
[6] = Escherichia coli, ATCC25922, read-out: Antibacterial Activity (MIC), A = E. coli ATCC 25922
[7] = Escherichia coli, BAA2469, read-out: Antibacterial Activity (MIC), G = E. coli BAA-2469
[8] = Klebsiella pneumoniae, ATCC700603, read-out: Antibacterial Activity (MIC), C = K. pneumoniae ATCC 700603
[9] = Pseudomonas aeruginosa, ATCC27853, read-out: Antibacterial Activity (MIC), D = P. aeruginosa ATCC 27853
[10] = Enterobacter cloacae, read-out: Antibacterial Activity (MIC), B = Enterobacter cloacae B1966

| SMILES | IC50 at 24 h [1] [µg/mL] | IC50 [2] [nM] | IC50 [2, 4] [nM] | MIC [3, 6] [µg/mL] | MIC [3, 7] [µg/mL] | MIC [3, 8] [µg/mL] | also measured |
| --- | --- | --- | --- | --- | --- | --- | --- |
| CC(C)C[C@H](N)C(=O)N=S(N)(=O)c1csc(Cl)c1 (mixture of isomers) [ANASIA-099] | > 64 | 72.2 | – | – | – | – | – |
| CC(C)C[C@H](N)C(=O)N=[S@](N)(=O)c1cccs1.Cl (single isomer, unassigned) [ANASIA-007-1, (S)-2-amino-N—((S)-amino(oxo)(thiophen-2-yl)-λ6-sulfanylidene)-4-methylpentanamide hydrochloride] | > 64 | – | 63.3 | – | – | – | – |
| CC(C)C[C@H](N)C(=O)N=[S@@](N)(=O)c1cccc(Cl)c1F [ANASIA-001-2] | > 64 | – | 3530 | – | – | – | – |
| CC(C)C[C@H](N)C(=O)N=[S@@](N)(=O)c1ccccc1 [ANASIA-003-2, (S)-2-amino-N—((R)-amino(oxo)(phenyl)-λ6-sulfanylidene)-4-methylpentanamide hydrochloride] | > 64 | – | 2260 | – | – | – | – |
| Cc1cccc([S@@](N)(=O)=NC(=O)[C@@H](N)CC(C)C)c1 [ANASIA-005-1] | > 64 | 3030 | – | – | – | – | – |
| CC(C)C[C@H](N)C(=O)N=[S@@](N)(=O)c1ccsc1 [ANASIA-008-2] | > 64 | – | 2000 | – | – | – | – |
| CC(C)C[C@H](N)C(=O)N=[S@](N)(=O)c1ccc(Cl)s1 [ANASIA-009-1] | > 64 | 1830 | – | – | – | – | – |
| CC(C)C[C@H](N)C(=O)N=[S@](N)(=O)c1cccc(F)c1 [ANASIA-011-1] | > 64 | – | – | – | – | – | – |
| CC(C)C[C@H](N)C(=O)N=[S@@](N)(=O)c1cccc(F)c1 [ANASIA-011-2] | > 64 | – | – | – | – | – | – |
| CC(C)C[C@H](N)C(=O)N=S(N)(=O)c1cccc(F)c1 (stereo partly shown) [ANASIA-011] | > 64 | – | – | – | – | – | – |
| CC(C)C[C@H](N)C(=O)N=[S@@](N)(=O)c1sccc1Cl [ANASIA-012-2] | > 64 | – | 3230 | – | – | – | – |
| CC(C)C[C@H](N)C(=O)N=S(N)(=O)c1ccc2ccccc2c1 (stereo partly shown) [ANASIA-013] | > 64 | – | 3570 | – | – | – | – |
| Cc1ccc([S@](N)(=O)=NC(=O)[C@@H](N)CC(C)C)s1 [ANASIA-014-2] | > 64 | – | 3980 | – | – | – | – |
| Cc1ccsc1[S@](N)(=O)=NC(=O)[C@@H](N)CC(C)C [ANASIA-015-2] | > 64 | – | 1860 | – | – | – | – |
| CC(C)C[C@H](N)C(=O)N=[S@](N)(=O)c1ccc(C(F)F)s1.Cl [ANASIA-017-1] | > 64 | – | – | 4 | 22.6 | > 256 | MIC [3, 5]: > 64 µg/mL; MIC ([3]; Haemophilus influenzae, ATCC49247, read-out: Antibacterial Activity (MIC), F = H. influenzae ATCC 49247): 4 µg/mL; MIC [3, 9]: > 64 µg/mL |
| CC[C@H](C)[C@H](N)C(=O)N=S(N)(=O)c1ccc2ccccc2c1 (stereo partly shown) [ANASIA-030] | > 64 | – | – | – | – | – | – |
| Cc1csc([S@@](N)(=O)=NC(=O)[C@@H](N)CC(C)C)c1.Cl [ANASIA-095-1] | – | 29 | – | 0.794 | 2 | 10.1 | MIC [3, 5]: 8 µg/mL; MIC [3, 10]: 8 µg/mL; MIC [3, 9]: 32 µg/mL |
| Cc1cc([S@@](N)(=O)=NC(=O)[C@@H](N)CC(C)C)cs1.Cl [ANASIA-098-1] | – | 148 | – | 3.17 | 4 | 32 | MIC [3, 5]: 64 µg/mL; MIC [3, 10]: 16 µg/mL; MIC [3, 9]: 64 µg/mL |
| CC(C)C[C@H](N)C(=O)N=[S@](N)(=O)c1csc(Cl)c1.Cl [ANASIA-099-1] | – | 124 | – | 0.5 | 4 | 8 | MIC [3, 5]: 16 µg/mL; MIC [3, 10]: 4 µg/mL; MIC [3, 9]: 64 µg/mL |
| CC(C)C[C@H](N)C(=O)N=[S@](N)(=O)c1csc2ccsc12.Cl [ANASIA-100-1] | – | 27.8 | – | 1 | 5.66 | 45.3 | MIC [3, 5]: 16 µg/mL; MIC [3, 10]: 16 µg/mL; MIC [3, 9]: 64 µg/mL |

| SMILES | IC50 at 24 h [1] [µg/mL] | IC50 [2] [nM] | IC50 [2, 4] [nM] | MIC [3, 6] [µg/mL] | MIC [3, 7] [µg/mL] | MIC [3, 8] [µg/mL] | also measured |
| --- | --- | --- | --- | --- | --- | --- | --- |
| CC(C)C[C@H](N)C(=O)N=[S@](N)(=O)c1ccc2c(c1)OCO2.Cl [ANASIA-101-1] | – | 1670 | – | 64 | – | – | – |
| COc1cccc(S(N)(=O)=NC(=O)[C@@H](N)CC(C)C)c1 (stereo partly drawn) [ANASIA-102, (2S)-2-amino-N-(amino(3-methoxyphenyl)(oxo)-16-sulfaneylidene)-4-methylpentanamide] | – | – | 385 | 16 (≈ 53.4 µM) | > 64 | – | – |
| CC(C)C[C@H](N)C(=O)N=[S@@](N)(=O)c1scc(F)c1F [ANASIA-103-2] | – | – | 210 | 16 (≈ 51.4 µM) | – | – | – |
| Cc1csc([S@@](N)(=O)=NC(=O)[C@@H](N)CC(C)C)c1C.Cl [ANASIA-104-1] | – | 241 | – | 8 | 16 | 128 | – |
| C=Cc1ccc([S@@](N)(=O)=NC(=O)[C@@H](N)CC(C)C)s1 [ANASIA-105-1, (S)-2-amino-N—((S)-amino(oxo)(5-vinylthiophen-2-yl)-λ6-sulfanylidene)-4-methylpentanamide] | – | 489 | – | 32 (≈ 106 µM) | – | – | – |
| CC(C)C[C@H](N)C(=O)N=[S@](N)(=O)c1scc(Br)c1Br.Cl [ANASIA-107-1] | – | 106 | – | 32 | – | – | – |
| COc1ccc([S@@](N)(=O)=NC(=O)[C@@H](N)CC(C)C)s1.Cl [ANASIA-109-1] | – | 2560 | – | 32 | 32 | – | – |
| CC(C)C[C@H](N)C(=O)N=S(N)(=O)c1ccccc1O (stereo partly drawn) [ANASIA-113, (2S)-2-amino-N-(amino(2-hydroxyphenyl)(oxo)-λ6-sulfanylidene)-4-methylpentanamide] | – | – | 3230 | 64 (≈ 224 µM) | – | – | – |
| CCc1ccsc1[S@@](N)(=O)=NC(=O)[C@@H](N)CC(C)C.Cl [ANASIA-119-1] | – | 99.7 | – | 4 | 8 | 64 | MIC [3, 5]: 32 µg/mL; MIC [3, 10]: 32 µg/mL; MIC [3, 9]: > 64 µg/mL |
| CC(C)C[C@H](N)C(=O)N=[S@](N)(=O)c1sc(Cl)cc1Cl.Cl [ANASIA-120-1] | – | 293 | – | 32 | – | – | – |
| CC(C)C[C@H](N)C(=O)N=[S@](N)(=O)c1cc(Cl)c(Cl)s1.Cl [ANASIA-121-1] | – | 41.7 | – | 8 | 16 | > 256 | – |
| Cc1c([S@@](N)(=O)=NC(=O)[C@@H](N)CC(C)C)csc1Cl.Cl [ANASIA-122-1] | – | 167 | – | 32 | – | – | – |
| CC(C)C[C@H](N)C(=O)N=[S@](N)(=O)c1csc(Cl)c1Cl.Cl [ANASIA-125-1] | – | 304 | – | – | 64 | > 256 | – |
| CC(C)C[C@H](N)C(=O)N=[S@](N)(=O)c1ccsc1C(F)F.Cl [ANASIA-126-1] | – | 208 | – | 5.66 | 32 | 256 | MIC [3, 5]: > 64 µg/mL; MIC [3, 10]: > 64 µg/mL; MIC [3, 9]: > 64 µg/mL |
| Cc1nc([S@@](N)(=O)=NC(=O)[C@@H](N)CC(C)C)cs1.Cl [ANASIA-129-1] | – | 319 | – | – | 64 | 128 | – |
| CC(C)C[C@H](N)C(=O)N=[S@](N)(=O)c1csc2cccnc12.Cl [ANASIA-131-1] | – | 530 | – | 32 | > 64 | 256 | – |
| CCc1csc([S@@](N)(=O)=NC(=O)[C@@H](N)CC(C)C)c1 [ANASIA-133-1, (S)-2-amino-N—((S)-amino(4-ethylthiophen-2-yl)(oxo)-λ6-sulfanylidene)-4-methylpentanamide] | – | 97.3 | – | – | 8 (≈ 26.4 µM) | 128 (≈ 422 µM) | – |
| CC(C)C[C@H](N)C(=O)N=[S@@](N)(=O)c1csc(C#N)c1.Cl [ANASIA-135-2] | – | – | 262 | 8 | 64 | > 256 | – |
| CC(C)C[C@H](N)C(=O)N=[S@](N)(=O)c1cc(C#N)cs1.Cl [ANASIA-136-1] | – | 71.8 | – | 8 | > 64 | > 256 | – |
